Assay results reported in patent US9056855B2, “Metalloenzyme inhibitor compounds” (Viamet Pharmaceuticals, Inc., priority 2010, dated 2015).

Columns and labels:
[1] = target: T1, CYP17 (Rattus norvegicus, UniProt P11715); assay: Inhibition of CYP17 (rat testicular microsomes); format: biochemical; conditions: pooled rat testicular microsomes
T1 construct: from tissue; host or cells: rat testis (pooled microsomes)
T1 sequence (P11715 1-507): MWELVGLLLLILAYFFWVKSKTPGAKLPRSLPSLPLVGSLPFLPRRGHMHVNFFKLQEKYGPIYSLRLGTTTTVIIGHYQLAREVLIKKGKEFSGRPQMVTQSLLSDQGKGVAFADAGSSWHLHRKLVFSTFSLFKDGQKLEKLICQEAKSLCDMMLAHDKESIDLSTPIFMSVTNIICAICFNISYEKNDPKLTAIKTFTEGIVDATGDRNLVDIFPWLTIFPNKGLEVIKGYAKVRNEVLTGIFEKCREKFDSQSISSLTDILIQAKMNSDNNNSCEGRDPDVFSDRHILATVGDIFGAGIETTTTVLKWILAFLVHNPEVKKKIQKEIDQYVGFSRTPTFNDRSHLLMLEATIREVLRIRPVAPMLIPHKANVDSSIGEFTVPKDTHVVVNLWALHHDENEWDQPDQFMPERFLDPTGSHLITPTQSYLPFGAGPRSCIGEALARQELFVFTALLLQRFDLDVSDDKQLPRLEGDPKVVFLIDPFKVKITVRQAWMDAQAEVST
Description: CYP17 activity was assayed according to the following procedure. […] The individual test compound and isozyme inhibitor solutions were then diluted 20-fold with deionized water (50:950 v/v) to concentrations of 135, 27, 4.5, 0.9, 0.15, 0.03 and 0.005 μM. […] For active controls, blank test compound diluent was added in place of test compound solution.

[2] = target: CYP3A4 (Homo sapiens, UniProt P08684); assay: Inhibition of liver cytochrome P450 enzymes, CYP3A4 (human liver microsomes)
Description: (§1) A. Inhibition of Liver Cytochrome P450 Enzymes
(§2) Solutions of each test compound were separately prepared at concentrations of 20000, 6000, 2000, 600, 200, and 60 μM by serial dilution with DMSO:MeCN (50:50 v/v). The individual test compound solutions were then diluted 20-fold with DMSO:MeCN:deionized water (5:5:180 v/v/v) to concentrations of 1000, 300, 100, 30, 10, and 3 μM. […] The mixed inhibitor solutions were then diluted 20-fold with DMSO:MeCN:deionized water (5:5:180 v/v/v) to concentrations of 300, 100, 30, 10, 3, 1, 0.3, and 0.1 μM. The percent of organic solvent attributable to the test compound or inhibitor mixture in the final reaction mixture was 2% v/v.
(§3) Pooled human liver microsome suspension (20 mg/mL) was diluted with phosphate buffer to obtain a 5 mg/mL suspension. A solution of NADPH was prepared in phosphate buffer at a concentration of 5 mM. Separate stock solutions of each substrate were prepared in DMSO:MeCN (50:50 v/v), mixed, and diluted in phosphate buffer to obtain a single solution containing each substrate at five times its experimentally determined Km concentration. The percent of organic solvent attributable to substrate mixture in the final reaction mixture was 1% v/v.
(§4) Substrate solution and microsome suspension were combined in a 1:1 volume ratio, mixed, and distributed to reaction wells of a PCR plate. Individual test compound or combined inhibitor solutions at each concentration were added to the wells and mixed by repetitive aspirate-dispense cycles. […] Reaction mixtures were allowed to equilibrate at 37° C. for approximately two minutes before adding NADPH solution to initiate reaction, followed by pipette mixing of reaction mixture. Ten minutes after addition of NADPH, the reaction mixtures were quenched with cold acetonitrile. […] A portion of the supernatant was analyzed by gradient reverse-phase HPLC with detection by electrospray ionization triple quadrupole mass spectrometry in the positive ion mode.
(§5) Data was fitted to sigmoid dose-response curves and the inhibitory potency of each test compound was determined as its IC50 value.

[3] = target: CYP2C19 (Homo sapiens, UniProt P33261); assay: Inhibition of liver cytochrome P450 enzymes, CYP2C19 (human liver microsomes)
Description: as §1, §2, §3, §4, §5

[4] = target: CYP2C9 (Homo sapiens, UniProt P11712); assay: Inhibition of liver cytochrome P450 enzymes, CYP2C9 (human liver microsomes)
Description: as §1, §2, §3, §4, §5

Chain of CYP2C9 (P11712 whole entry): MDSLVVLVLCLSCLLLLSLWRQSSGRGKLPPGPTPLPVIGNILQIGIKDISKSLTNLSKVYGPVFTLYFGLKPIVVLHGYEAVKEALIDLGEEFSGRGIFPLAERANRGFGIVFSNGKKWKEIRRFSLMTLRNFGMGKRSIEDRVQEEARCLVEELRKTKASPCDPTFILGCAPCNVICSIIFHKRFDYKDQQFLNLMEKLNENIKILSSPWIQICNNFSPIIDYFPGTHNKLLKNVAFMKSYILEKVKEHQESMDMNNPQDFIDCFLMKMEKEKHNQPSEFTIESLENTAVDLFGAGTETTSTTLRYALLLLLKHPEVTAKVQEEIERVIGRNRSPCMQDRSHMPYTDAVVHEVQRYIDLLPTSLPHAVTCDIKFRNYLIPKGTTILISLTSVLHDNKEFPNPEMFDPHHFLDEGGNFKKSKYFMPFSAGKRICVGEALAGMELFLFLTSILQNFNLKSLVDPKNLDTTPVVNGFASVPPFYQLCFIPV
Chain of CYP3A4 (P08684 whole entry): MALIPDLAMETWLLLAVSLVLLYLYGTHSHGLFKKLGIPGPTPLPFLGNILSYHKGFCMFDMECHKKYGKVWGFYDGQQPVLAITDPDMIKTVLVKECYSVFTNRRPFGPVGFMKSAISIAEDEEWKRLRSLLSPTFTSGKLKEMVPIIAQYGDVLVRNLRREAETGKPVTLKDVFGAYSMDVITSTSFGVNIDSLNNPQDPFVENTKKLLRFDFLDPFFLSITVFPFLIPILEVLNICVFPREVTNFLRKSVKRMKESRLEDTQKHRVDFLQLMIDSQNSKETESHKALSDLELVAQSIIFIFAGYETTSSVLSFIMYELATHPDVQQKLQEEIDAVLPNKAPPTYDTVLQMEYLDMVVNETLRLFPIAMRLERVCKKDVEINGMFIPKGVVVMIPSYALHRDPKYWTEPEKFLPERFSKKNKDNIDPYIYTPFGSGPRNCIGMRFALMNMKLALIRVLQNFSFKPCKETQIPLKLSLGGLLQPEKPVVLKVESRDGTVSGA
Chain of CYP2C19 (P33261 whole entry): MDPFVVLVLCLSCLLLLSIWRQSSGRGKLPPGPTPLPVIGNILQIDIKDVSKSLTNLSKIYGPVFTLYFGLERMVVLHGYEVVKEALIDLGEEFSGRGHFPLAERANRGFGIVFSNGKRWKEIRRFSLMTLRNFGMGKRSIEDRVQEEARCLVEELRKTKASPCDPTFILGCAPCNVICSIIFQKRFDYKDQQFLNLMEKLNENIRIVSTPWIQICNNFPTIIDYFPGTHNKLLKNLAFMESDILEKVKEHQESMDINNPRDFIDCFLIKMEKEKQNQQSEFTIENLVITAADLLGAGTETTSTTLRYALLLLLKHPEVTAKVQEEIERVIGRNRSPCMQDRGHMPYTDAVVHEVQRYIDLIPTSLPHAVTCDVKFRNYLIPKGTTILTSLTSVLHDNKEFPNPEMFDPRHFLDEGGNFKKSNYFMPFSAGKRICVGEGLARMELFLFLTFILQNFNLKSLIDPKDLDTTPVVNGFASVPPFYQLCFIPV

Row | SMILES | IC50 [1] [µM] | IC50 [2] [µM] | IC50 [3] [µM] | IC50 [4] [µM]
1 | CSc1ccc2nc(C(O)(c3ccncn3)C(C)C)ccc2c1 (centres unmarked) [Example 2, 2-Methyl-1-(6-(methylthio)quinolin-2-yl)-1-(pyrimidin-4-yl)propan-1-ol] | 0.12 | 19 | 5.1 | 3.3
2 | COc1cc2ccc(C(O)(c3ccncn3)C(C)C)cc2cc1OC (centres unmarked) [Example 1, 1-(6,7-dimethoxynaphthalen-2-yl)-2-methyl-1-(pyrimidin-4-yl)propan-1-ol] | 0.44 | 18 | 8.5 | 7.8
3 | CC(C)C(O)(c1ccncn1)c1ccc2c(C(F)(F)F)c(Cl)ccc2n1 (centres unmarked) [Example 5, 1-(6-chloro-5-(trifluoromethyl)quinolin-2-yl)-2-methyl-1-(pyrimidin-4-yl)propan-1-ol] | 1.75 |  |  | 
4 | CC(C)C(O)(c1ccncn1)c1ccc2c(C(F)(F)F)c(-c3cccs3)ccc2n1 (centres unmarked) [Example 4, 2-methyl-1-(pyrimidin-4-yl)-1-(6-(thiophen-2-yl)-5-(trifluoromethyl)quinolin-2-yl)propan-1-ol] | 5.76 |  |  | 
5 | CC(C)C(O)(c1ccncn1)c1ccc2c(-c3cccs3)c(OC(F)F)ccc2n1 (centres unmarked) [Example 8, 1-(6-(difluoromethoxy)-5-(thiophen-2-yl)quinolin-2-yl)-2-methyl-1-(pyrimidin-4-yl)propan-1-ol] | 1 |  |  | 
6 | CC(C)C(O)(c1ccncn1)c1ccc2c(C(F)(F)F)c(OC(F)F)ccc2n1 (centres unmarked) [Example 7, 1-(6-(difluoromethoxy)-5-(trifluoromethyl)quinolin-2-yl)-2-methyl-1-(pyrimidin-4-yl)propan-1-ol] | 0.6 |  |  | 
7 | CC(C)C(O)(c1ccncn1)c1ccc2cc(OC(F)(F)F)ccc2n1 (centres unmarked) [Example 6, 2-methyl-1-(pyrimidin-4-yl)-1-(6-(trifluoromethoxy)quinolin-2-yl)propan-1-ol] | 0.98 |  |  | 
8 | CC(C)C(O)(c1ccncn1)c1ccc2cc(OC(F)F)ccc2n1 (centres unmarked) [Example 3, 1-(6-(Difluoromethoxy)quinolin-2-yl)-2-methyl-1-(pyrimidin-4-yl)propan-1-ol] | 0.08 | 30 | 8.7 | 3.5
